Where “and” joins values, the source holds several entries; their conditions need not be identical. Equal values may be shown once. Read-outs that look alike come from different tables or passages of the source.
Legend:
Experiment in all cases: SafetyScreen87 panel
[1] = target: T1, 5-HT1B (h) (antagonist radioligand) (Homo sapiens, UniProt P28222); conditions: 1.0E-06 M; mean; read-out: % Inhibition of Control Specific Binding (1st, 2nd, Mean)
T1 construct: purchased DiscoverX KINOMEscan scanEDGE; Eurofins Cerep SafetyScreen87
Experimental: (§1) The possibility of KDS12025 on kinase off-target, the KINOMEscan panel of scanEDGE assay was conducted in DiscoverX (CA, USA) using a site-directed competition binding with the test compounds. The assay results are given in Supplementary Table 4 and experimental information is available on the DiscoverX web page (www.discoverx.com). Moreover, the Delta SafetyScreen87 panel assay was conducted in Eurofins Discovery (Cerep, France). The assay results are given in Supplementary Table 5 and experimental information is available on the DiscoverX web page (https://www.eurofinsdiscoveryservices.com).

[2] = target: T2, Estrogen ER alpha (h) (agonist radioligand) (Homo sapiens, UniProt P03372); conditions: 1.0E-06 M; mean; read-out: % Inhibition of Control Specific Binding (1st, 2nd, Mean)
T2 construct: purchased DiscoverX KINOMEscan scanEDGE; Eurofins Cerep SafetyScreen87
Experimental: as §1

[3] = target: T3, GABAB(1b) (h) (antagonist radioligand) (Homo sapiens, UniProt Q9UBS5); conditions: 1.0E-06 M, read-out: % Inhibition of Control Specific Binding (1st, 2nd, Mean)
T3 construct: purchased DiscoverX KINOMEscan scanEDGE; Eurofins Cerep SafetyScreen87
T3 sequence (Q9UBS5 1-844 isoform Q9UBS5-2): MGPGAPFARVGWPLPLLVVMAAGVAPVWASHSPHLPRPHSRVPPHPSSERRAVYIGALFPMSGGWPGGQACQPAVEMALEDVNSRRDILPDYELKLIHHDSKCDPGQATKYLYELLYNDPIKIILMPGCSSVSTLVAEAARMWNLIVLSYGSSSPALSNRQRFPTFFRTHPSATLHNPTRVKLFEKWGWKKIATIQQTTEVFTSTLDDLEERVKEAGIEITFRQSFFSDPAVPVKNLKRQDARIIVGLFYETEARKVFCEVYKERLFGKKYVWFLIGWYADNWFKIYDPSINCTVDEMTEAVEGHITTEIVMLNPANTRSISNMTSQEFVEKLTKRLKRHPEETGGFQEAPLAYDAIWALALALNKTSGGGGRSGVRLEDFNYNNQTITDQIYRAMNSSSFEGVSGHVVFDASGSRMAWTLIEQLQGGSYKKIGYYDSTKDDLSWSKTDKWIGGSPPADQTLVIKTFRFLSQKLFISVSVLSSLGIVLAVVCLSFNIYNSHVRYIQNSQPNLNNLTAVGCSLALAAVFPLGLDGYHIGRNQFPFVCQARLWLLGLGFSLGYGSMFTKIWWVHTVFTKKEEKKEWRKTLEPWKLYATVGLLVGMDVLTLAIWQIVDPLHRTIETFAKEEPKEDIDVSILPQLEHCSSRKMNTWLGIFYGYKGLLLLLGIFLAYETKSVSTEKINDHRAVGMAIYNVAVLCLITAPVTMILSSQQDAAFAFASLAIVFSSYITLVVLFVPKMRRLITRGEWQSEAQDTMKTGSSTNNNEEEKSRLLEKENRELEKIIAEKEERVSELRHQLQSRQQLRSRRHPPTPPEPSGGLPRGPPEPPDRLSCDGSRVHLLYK
Experimental: as §1

[4] = target: T4, D2S (h) (agonist radioligand) (Homo sapiens, UniProt P14416); conditions: 1.0E-06 M, read-out: % Inhibition of Control Specific Binding (1st, 2nd, Mean)
T4 construct: purchased DiscoverX KINOMEscan scanEDGE; Eurofins Cerep SafetyScreen87
T4 sequence (P14416 1-414 isoform P14416-2): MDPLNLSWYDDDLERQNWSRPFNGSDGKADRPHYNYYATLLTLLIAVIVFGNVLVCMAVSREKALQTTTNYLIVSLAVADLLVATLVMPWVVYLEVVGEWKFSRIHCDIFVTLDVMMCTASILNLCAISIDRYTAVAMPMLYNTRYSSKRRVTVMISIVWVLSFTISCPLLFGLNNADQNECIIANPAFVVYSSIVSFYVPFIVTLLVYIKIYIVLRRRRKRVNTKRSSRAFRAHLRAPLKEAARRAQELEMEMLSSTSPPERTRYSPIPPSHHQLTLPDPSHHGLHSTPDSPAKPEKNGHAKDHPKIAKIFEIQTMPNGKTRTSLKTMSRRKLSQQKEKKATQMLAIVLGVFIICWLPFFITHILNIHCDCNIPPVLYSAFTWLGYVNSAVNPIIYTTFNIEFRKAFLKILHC
Experimental: as §1

[5] = tested on: glycine (strychnine-insensitive) (antagonist radioligand); conditions: 1.0E-06 M; read-out: % Inhibition of Control Specific Binding (1st, 2nd, Mean)
Experimental: as §1

[6] = target: T5, PPARgamma (h) (agonist radioligand) (Homo sapiens, UniProt P37231); conditions: read-out: % Inhibition of Control Specific Binding (1st, 2nd, Mean); 1.0E-06 M
T5 construct: purchased DiscoverX KINOMEscan scanEDGE; Eurofins Cerep SafetyScreen87
Experimental: as §1

[7] = target: T6, kappa (h) (KOP) (agonist radioligand) (Homo sapiens, UniProt P41145); conditions: 1.0E-06 M; mean; read-out: % Inhibition of Control Specific Binding (1st, 2nd, Mean)
T6 construct: purchased DiscoverX KINOMEscan scanEDGE; Eurofins Cerep SafetyScreen87
Experimental: as §1

[8] = target: T7, PAF (h) (agonist radioligand) (Homo sapiens, UniProt P25105); conditions: 1.0E-06 M; read-out: % Inhibition of Control Specific Binding (1st, 2nd, Mean)
T7 construct: purchased DiscoverX KINOMEscan scanEDGE; Eurofins Cerep SafetyScreen87
Experimental: as §1

[9] = target: T8, 5-HT2C (h) (antagonist radioligand) (Homo sapiens, UniProt P28335); conditions: 1.0E-06 M; mean; read-out: % Inhibition of Control Specific Binding (1st, 2nd, Mean)
T8 construct: purchased DiscoverX KINOMEscan scanEDGE; Eurofins Cerep SafetyScreen87
Experimental: as §1

[10] = tested on: glycine (strychnine-sensitive) (antagonist radioligand); conditions: 1.0E-06 M, read-out: % Inhibition of Control Specific Binding (1st, 2nd, Mean)
Experimental: as §1

[11] = target: T9, alpha 1D (h) (antagonist radioligand) (Homo sapiens, UniProt P25100); conditions: 1.0E-06 M, read-out: % Inhibition of Control Specific Binding (1st, 2nd, Mean)
T9 construct: purchased DiscoverX KINOMEscan scanEDGE; Eurofins Cerep SafetyScreen87
T9 sequence (P25100 whole entry): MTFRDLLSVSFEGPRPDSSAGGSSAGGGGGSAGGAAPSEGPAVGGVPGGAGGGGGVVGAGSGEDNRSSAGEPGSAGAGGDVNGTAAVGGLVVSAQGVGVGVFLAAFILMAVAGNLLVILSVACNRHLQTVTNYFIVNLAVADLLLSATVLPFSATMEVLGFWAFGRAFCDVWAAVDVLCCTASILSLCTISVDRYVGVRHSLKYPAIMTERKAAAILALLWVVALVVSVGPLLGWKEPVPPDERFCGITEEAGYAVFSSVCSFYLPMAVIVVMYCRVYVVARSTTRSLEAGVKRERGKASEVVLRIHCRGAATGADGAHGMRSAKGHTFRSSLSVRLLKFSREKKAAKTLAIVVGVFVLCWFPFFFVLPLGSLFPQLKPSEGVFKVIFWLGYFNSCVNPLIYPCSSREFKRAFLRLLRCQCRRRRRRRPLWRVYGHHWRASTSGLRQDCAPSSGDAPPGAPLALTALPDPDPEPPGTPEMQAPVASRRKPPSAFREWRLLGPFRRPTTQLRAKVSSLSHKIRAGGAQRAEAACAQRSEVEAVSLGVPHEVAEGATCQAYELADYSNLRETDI
Experimental: as §1

[12] = target: T10, M2 (h) (antagonist radioligand) (Homo sapiens, UniProt P08172); conditions: 1.0E-06 M; mean; read-out: % Inhibition of Control Specific Binding (1st, 2nd, Mean)
T10 construct: purchased DiscoverX KINOMEscan scanEDGE; Eurofins Cerep SafetyScreen87
Experimental: as §1

[13] = target: T11, alpha 2B (h) (antagonist radioligand) (Homo sapiens, UniProt P18089); conditions: 1.0E-06 M, read-out: % Inhibition of Control Specific Binding (1st, 2nd, Mean)
T11 construct: purchased DiscoverX KINOMEscan scanEDGE; Eurofins Cerep SafetyScreen87
T11 sequence (P18089 whole entry): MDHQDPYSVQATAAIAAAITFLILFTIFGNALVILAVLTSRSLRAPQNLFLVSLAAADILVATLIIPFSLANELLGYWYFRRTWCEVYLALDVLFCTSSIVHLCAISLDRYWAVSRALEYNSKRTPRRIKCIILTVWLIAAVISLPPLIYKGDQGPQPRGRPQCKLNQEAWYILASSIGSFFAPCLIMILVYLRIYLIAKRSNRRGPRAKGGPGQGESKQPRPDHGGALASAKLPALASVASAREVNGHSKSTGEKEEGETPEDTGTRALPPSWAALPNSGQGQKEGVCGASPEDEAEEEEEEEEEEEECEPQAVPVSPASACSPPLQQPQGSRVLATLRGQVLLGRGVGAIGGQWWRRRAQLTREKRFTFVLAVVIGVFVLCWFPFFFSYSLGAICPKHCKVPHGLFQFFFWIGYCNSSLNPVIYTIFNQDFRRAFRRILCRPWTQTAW
Experimental: as §1

[14] = target: T12, A2A (h) (agonist radioligand) (Homo sapiens, UniProt P29274); conditions: 1.0E-06 M, read-out: % Inhibition of Control Specific Binding (1st, 2nd, Mean)
T12 construct: purchased DiscoverX KINOMEscan scanEDGE; Eurofins Cerep SafetyScreen87
T12 sequence (P29274 whole entry): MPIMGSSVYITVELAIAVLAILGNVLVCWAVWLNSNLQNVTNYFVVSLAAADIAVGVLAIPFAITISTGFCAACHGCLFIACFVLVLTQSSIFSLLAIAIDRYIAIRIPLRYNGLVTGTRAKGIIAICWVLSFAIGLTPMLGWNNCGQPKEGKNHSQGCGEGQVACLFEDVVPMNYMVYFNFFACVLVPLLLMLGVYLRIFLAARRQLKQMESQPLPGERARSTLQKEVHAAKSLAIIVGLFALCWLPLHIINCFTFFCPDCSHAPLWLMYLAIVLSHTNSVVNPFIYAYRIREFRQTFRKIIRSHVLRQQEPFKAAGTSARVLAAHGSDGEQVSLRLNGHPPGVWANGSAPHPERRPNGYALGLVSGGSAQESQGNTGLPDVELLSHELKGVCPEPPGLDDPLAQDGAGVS
Experimental: as §1

[15] = target: T13, H1 (h) (antagonist radioligand) (Homo sapiens, UniProt P35367); conditions: 1.0E-06 M; mean; read-out: % Inhibition of Control Specific Binding (1st, 2nd, Mean)
T13 construct: purchased DiscoverX KINOMEscan scanEDGE; Eurofins Cerep SafetyScreen87
Experimental: as §1

[16] = target: T14, N neuronal alpha 4beta 2 (h) (agonist radioligand) (Homo sapiens, UniProt P17787+P43681); conditions: 1.0E-06 M; mean; read-out: % Inhibition of Control Specific Binding (1st, 2nd, Mean)
T14 construct: purchased DiscoverX KINOMEscan scanEDGE; Eurofins Cerep SafetyScreen87
Experimental: as §1

[17] = tested on: PCP (antagonist radioligand); conditions: 1.0E-06 M; mean; read-out: % Inhibition of Control Specific Binding (1st, 2nd, Mean)
Experimental: as §1

[18] = target: T15, GR (h) (agonist radioligand) (Homo sapiens, UniProt P04150); conditions: 1.0E-06 M; mean; read-out: % Inhibition of Control Specific Binding (1st, 2nd, Mean)
T15 construct: purchased DiscoverX KINOMEscan scanEDGE; Eurofins Cerep SafetyScreen87
Experimental: as §1

[19] = target: T16, CXCR2 (IL-8B) (h) (agonist radioligand) (Homo sapiens, UniProt P25025)
T16 construct: purchased DiscoverX KINOMEscan scanEDGE; Eurofins Cerep SafetyScreen87
T16 sequence (P25025 whole entry): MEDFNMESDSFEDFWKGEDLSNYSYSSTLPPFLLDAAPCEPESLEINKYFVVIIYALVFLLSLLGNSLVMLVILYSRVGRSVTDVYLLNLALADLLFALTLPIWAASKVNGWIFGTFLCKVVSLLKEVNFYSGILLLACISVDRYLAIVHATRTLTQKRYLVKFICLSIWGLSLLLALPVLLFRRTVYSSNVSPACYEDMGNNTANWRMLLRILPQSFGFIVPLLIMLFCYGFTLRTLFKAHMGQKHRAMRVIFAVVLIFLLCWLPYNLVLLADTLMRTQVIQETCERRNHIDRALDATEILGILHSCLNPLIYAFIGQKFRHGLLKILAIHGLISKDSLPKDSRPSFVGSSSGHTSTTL
Experimental: as §1

[20] = tested on: AMPA (agonist radioligand); conditions: 1.0E-06 M, read-out: % Inhibition of Control Specific Binding (1st, 2nd, Mean)
Experimental: as §1

[21] = target: T17, adenosine transporter (antagonist radioligand) (Cavia porcellus, UniProt H0V4R7)
T17 construct: Eurofins Discovery (Cerep, France) SafetyScreen87 panel
Experimental: as §1

[22] = target: T18, ETA (h) (agonist radioligand) (Homo sapiens, UniProt P25101)
T18 construct: purchased DiscoverX KINOMEscan scanEDGE; Eurofins Cerep SafetyScreen87
Experimental: as §1

[23] = target: T19, Ca2+ channel (N) (antagonist radioligand) (Rattus norvegicus, UniProt Q02294)
T19 construct: Eurofins Discovery (Cerep, France) SafetyScreen87 panel
Experimental: as §1

[24] = target: T20, 5-HT2A (h) (agonist radioligand) (Homo sapiens, UniProt P28223); conditions: 1.0E-06 M; mean; read-out: % Inhibition of Control Specific Binding (1st, 2nd, Mean)
T20 construct: purchased DiscoverX KINOMEscan scanEDGE; Eurofins Cerep SafetyScreen87
Experimental: as §1

[25] = target: T21, dopamine transporter (h) (antagonist radioligand) (Homo sapiens, UniProt Q01959); conditions: 1.0E-06 M, read-out: % Inhibition of Control Specific Binding (1st, 2nd, Mean)
T21 construct: Eurofins Discovery (Cerep, France) SafetyScreen87 panel
T21 sequence (Q01959 whole entry): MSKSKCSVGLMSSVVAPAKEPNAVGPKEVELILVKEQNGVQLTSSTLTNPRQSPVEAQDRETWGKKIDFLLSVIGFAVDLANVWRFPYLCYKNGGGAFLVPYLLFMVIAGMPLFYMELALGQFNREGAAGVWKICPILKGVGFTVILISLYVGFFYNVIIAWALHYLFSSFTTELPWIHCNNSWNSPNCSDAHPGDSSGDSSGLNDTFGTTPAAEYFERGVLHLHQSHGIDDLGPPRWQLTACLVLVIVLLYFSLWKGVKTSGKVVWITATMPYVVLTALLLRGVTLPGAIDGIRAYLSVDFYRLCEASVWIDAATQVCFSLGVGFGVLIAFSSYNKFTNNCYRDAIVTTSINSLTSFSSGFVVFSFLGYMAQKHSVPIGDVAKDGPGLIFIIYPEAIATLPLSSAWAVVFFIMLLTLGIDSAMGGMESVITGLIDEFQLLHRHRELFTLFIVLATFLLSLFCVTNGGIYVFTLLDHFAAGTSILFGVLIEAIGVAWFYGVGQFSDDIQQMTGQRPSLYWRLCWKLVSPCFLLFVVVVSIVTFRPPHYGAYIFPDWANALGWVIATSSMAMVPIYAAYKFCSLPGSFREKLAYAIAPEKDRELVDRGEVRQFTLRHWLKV
Experimental: as §1

[26] = target: T22, MC1 (agonist radioligand) (Mus musculus, UniProt Q01727); conditions: 1.0E-06 M; mean; read-out: % Inhibition of Control Specific Binding (1st, 2nd, Mean)
T22 construct: purchased DiscoverX KINOMEscan scanEDGE; Eurofins Cerep SafetyScreen87
Experimental: as §1

[27] = target: T23, delta (DOP) (h) (agonist radioligand) (Homo sapiens, UniProt P41143); conditions: 1.0E-06 M; mean; read-out: % Inhibition of Control Specific Binding (1st, 2nd, Mean)
T23 construct: purchased DiscoverX KINOMEscan scanEDGE; Eurofins Cerep SafetyScreen87
Experimental: as §1

[28] = target: T24, B2 (h) (agonist radioligand) (Homo sapiens, UniProt P30411)
T24 construct: purchased DiscoverX KINOMEscan scanEDGE; Eurofins Cerep SafetyScreen87
Experimental: as §1

[29] = target: T25, CB2 (h) (agonist radioligand) (Homo sapiens, UniProt P34972); conditions: 1.0E-06 M, read-out: % Inhibition of Control Specific Binding (1st, 2nd, Mean)
T25 construct: purchased DiscoverX KINOMEscan scanEDGE; Eurofins Cerep SafetyScreen87
T25 sequence (P34972 whole entry): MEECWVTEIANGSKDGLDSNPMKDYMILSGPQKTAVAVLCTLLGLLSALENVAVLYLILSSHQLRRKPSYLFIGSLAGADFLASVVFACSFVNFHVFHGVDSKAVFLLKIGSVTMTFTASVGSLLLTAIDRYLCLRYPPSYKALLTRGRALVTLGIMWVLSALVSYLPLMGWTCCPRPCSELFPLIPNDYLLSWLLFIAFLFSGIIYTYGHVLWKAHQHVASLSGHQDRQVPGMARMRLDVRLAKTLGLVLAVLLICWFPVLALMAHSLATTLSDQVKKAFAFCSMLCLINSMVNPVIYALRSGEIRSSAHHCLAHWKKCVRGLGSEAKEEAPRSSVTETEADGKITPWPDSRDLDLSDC
Experimental: as §1

[30] = target: T26, alpha 1A (h) (antagonist radioligand) (Homo sapiens, UniProt P35348); conditions: 1.0E-06 M, read-out: % Inhibition of Control Specific Binding (1st, 2nd, Mean)
T26 construct: purchased DiscoverX KINOMEscan scanEDGE; Eurofins Cerep SafetyScreen87
T26 sequence (P35348 whole entry): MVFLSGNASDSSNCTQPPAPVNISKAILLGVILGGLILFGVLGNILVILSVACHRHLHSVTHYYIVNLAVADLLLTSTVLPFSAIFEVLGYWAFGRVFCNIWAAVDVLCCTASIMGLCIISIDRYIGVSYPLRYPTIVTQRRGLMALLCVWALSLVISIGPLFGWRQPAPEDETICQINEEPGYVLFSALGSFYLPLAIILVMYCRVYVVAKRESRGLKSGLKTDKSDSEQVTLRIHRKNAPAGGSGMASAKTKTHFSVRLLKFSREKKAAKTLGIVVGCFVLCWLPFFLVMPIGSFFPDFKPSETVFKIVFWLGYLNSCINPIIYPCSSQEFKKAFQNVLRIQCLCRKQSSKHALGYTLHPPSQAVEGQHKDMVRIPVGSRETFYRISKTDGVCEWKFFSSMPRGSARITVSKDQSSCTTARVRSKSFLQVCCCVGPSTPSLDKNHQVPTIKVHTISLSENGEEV
Experimental: as §1

[31] = target: T27, M4 (h) (antagonist radioligand) (Homo sapiens, UniProt P08173); conditions: 1.0E-06 M; mean; read-out: % Inhibition of Control Specific Binding (1st, 2nd, Mean)
T27 construct: purchased DiscoverX KINOMEscan scanEDGE; Eurofins Cerep SafetyScreen87
Experimental: as §1

[32] = target: T28, D2L (h) (antagonist radioligand) (Homo sapiens, UniProt P14416); conditions: 1.0E-06 M, read-out: % Inhibition of Control Specific Binding (1st, 2nd, Mean)
T28 construct: purchased DiscoverX KINOMEscan scanEDGE; Eurofins Cerep SafetyScreen87
T28 sequence (P14416 whole entry): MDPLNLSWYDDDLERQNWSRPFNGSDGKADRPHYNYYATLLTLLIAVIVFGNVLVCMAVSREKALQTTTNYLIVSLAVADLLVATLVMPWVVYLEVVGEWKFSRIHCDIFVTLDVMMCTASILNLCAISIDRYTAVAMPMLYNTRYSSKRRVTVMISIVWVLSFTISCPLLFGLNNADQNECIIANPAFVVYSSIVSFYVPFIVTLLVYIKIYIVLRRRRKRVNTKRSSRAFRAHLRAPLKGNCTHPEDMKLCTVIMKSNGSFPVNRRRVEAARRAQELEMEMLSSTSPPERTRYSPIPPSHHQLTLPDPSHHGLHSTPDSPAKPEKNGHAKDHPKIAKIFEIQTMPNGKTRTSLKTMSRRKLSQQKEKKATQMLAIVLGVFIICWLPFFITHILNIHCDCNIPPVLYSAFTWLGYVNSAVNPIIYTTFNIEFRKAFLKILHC
Experimental: as §1

[33] = 1.0E-06 M; read-out: % Inhibition of Control Specific Binding (1st, 2nd, Mean)
[34] = read-out: % Inhibition of Control Specific Binding (1st, 2nd, Mean); 1.0E-06 M

Question: Which results are given for CNc1ccc(NCCc2ccccc2OC)cc1.Cl [KDS12025, N^1-(2-methoxyphenethyl)-N^4-methylbenzene-1,4-diamine hydrochloride salt]?
Answer: activity [1]: 90.8%; activity [2]: 95.3%; activity ([3]; mean): 104%; activity [3]: 106% and 101%; activity ([4]; mean): 61.9%; activity [4]: 64% and 59.8%; activity [5]: 96.8% and 100%; activity [6]: 94.7%; activity [7]: 82.7%; activity [8]: 106%; activity [9]: 76.4%; activity ([10]; mean): 118%; activity [10]: 117% and 118%; activity ([11]; mean): 75.8%; activity [11]: 75.3% and 76.3%; activity [12]: 107%; activity ([13]; mean): 84.2%; activity [13]: 81.9% and 86.6%; activity ([14]; mean): 90.7%; activity [14]: 90.3% and 91.2%; activity [15]: 88.2%; activity [16]: 98.4%; activity [17]: 92%; activity [18]: 104%; activity [19, 33]: 83.3%; activity [19, 34]: 91.8%; activity ([20]; mean): 100%; activity [20]: 98% and 103%; activity [21, 33]: 101%; activity [21, 34]: 98.6%; activity [22, 33]: 108%; activity [22, 34]: 90.8%; activity [23, 33]: 118%; activity [23, 34]: 104%; activity [24]: 81.8%; activity ([25]; mean): 107%; activity [25]: 102% and 111%; activity [26]: 109%; activity [27]: 79.7%; activity [28, 33]: 99.4%; activity [28, 34]: 104%; activity ([29]; mean): 84.6%; activity [29]: 78.4% and 90.8%; activity ([30]; mean): 87.1%; activity [30]: 87.6% and 86.5%; activity [31]: 102%; activity ([32]; mean): 84%; activity [32]: 74.8% and 93.2%
